{
  "source": "PubChem BioAssay AID1259410",
  "about": "(Chemical Carcinogenesis Research Information System (CCRIS), 2018)",
  "origin": "cited, not measured here",
  "tested_on": "rodent tumor promotion studies, tumor incidence",
  "test": "CCRIS tumor promotion studies",
  "data": [
    {"compound": "Nc1ncn([C@@H]2O[C@H](CO)[C@@H](O)[C@H]2O)c(=O)n1", "values": [
      {"measurement": "outcome", "setting": "Carcinogen: DIETHYLNITROSAMINE, 55-18-5, Doses [Carcinogen]: 50 MG/KG IN SALINE ADMINISTERED ONCE 18 HR AFTER PARTIAL HEPATECTOMY, Doses [Promoter]: 0, 2.5, 10 MG/KG 2/WK FOR 9 MO BEGINNING POST CARCINOGEN DOSE (STUDY DURATION: 18 MO), Doses [Promoter]: 0, 2.5, 10 MG/KG 2/WK FOR 9 MO BEGINNING POST CARCINOGEN DOSE (STUDY DURATION: 18 MO), Route [Promoter]: INTRAPERITONEAL, Species: RAT, Strain/Sex: F344/MALE", "result": "liver: hepatocellular carcinoma"},
      {"measurement": "outcome", "setting": "Carcinogen: DIETHYLNITROSAMINE, 55-18-5, Doses [Carcinogen]: 80 MG/KG 1/WK FOR 5 WK, Doses [Promoter]: 0, 5, 10 MG/KG INJECTED 4, 24, AND 48 HR AFTER EACH CARCINOGEN EXPOSURE (STUDY DURATION: 6 MO), Doses [Promoter]: 0, 5, 10 MG/KG INJECTED 4, 24, AND 48 HR AFTER EACH CARCINOGEN EXPOSURE (STUDY DURATION: 6 MO), Route [Carcinogen]: INTRAPERITONEAL, Route [Promoter]: INTRAPERITONEAL, Species: RAT, Strain/Sex: BD6/MALE", "result": "liver: tumor"}
    ]},
    {"compound": "CC1=CC[C@H]2C[C@@H]1C2(C)C", "values": [
      {"measurement": "outcome", "setting": "Carcinogen: 7,12-DIMETHYLBENZ(A)ANTHRACENE, Doses [Carcinogen]: TOP, Route [Carcinogen]: DERMAL, Route [Promoter]: DERMAL, Species: MOUSE", "result": "integumentary system (skin)"}
    ]},
    {"compound": "CCC1(CCCCCCCCCCCCC(=O)OC2C(C)C3(O)C(C=C(CO)CC4(O)C(=O)C(C)=CC43)C3C(C)(C)C23OC(C)=O)OCC(C)(C)N1[O]", "note": "(centres undefined)", "values": [
      {"measurement": "outcome", "setting": "Carcinogen: 7,12-DIMETHYLBENZ[A]ANTHRACENE, 57-97-6, Doses [Carcinogen]: 100 NMOL ONCE, Doses [Promoter]: 0, 20 NMOL 2/WK FOR 24 WK BEGINNING 1 WK POST CARCINOGEN DOSE (STUDY DURATION: 25 WK), Route [Carcinogen]: DERMAL, Route [Promoter]: DERMAL, Species: MOUSE, Strain/Sex: NMRI/FEMALE", "result": "skin: tumor"}
    ]}
  ]
}
